Experimental data reported in patent EP1383793B1 (priority 2000, dated 2001).
Read-outs that look alike come from different tables or passages of the source. Residues, ends and D or L forms follow the SMILES beside them. No end group written: not given here. *: point of attachment. Biotin = O=C1N[C@H]2[C@H](CS[C@H]2CCCCC(=O)*)N1

How the values were obtained:
[1] = target: human IGF-1 receptor (HIGF-1R) (Homo sapiens, UniProt P08069); test: 125I-IGF-1 competition binding assay on solubilised purified receptor
[2] = target: T1, human insulin receptor (HIR) (Homo sapiens, UniProt P06213); test: 125I-insulin competition binding assay on solubilised purified receptor
T1 construct: made in house

IGF-1R = target: T2, IGF-1R (Homo sapiens, UniProt P08069); test: IGF-1R peptide assay, time-resolved FRET, competition with biotinylated 20E2 (IC50); format: binding
T2 construct: Soluble IGF-1R was obtained from R&D Systems; purchased R&D Systems 391-GR/CF
Source text: Assays have been developed using Time-Resolved Fluorescence Resonance Energy Transfer (FRET). These assays are not radioactive, homogeneous (no wash steps), and can be rapidly carried out in 96- or 384-well microtiter plate format facilitating their use in high-throughput screening assays for small organic molecules.
The IGF-1R was labeled with Europium (Eu) by EG&G Wallac.
The Streptavidin-Allophycocynanin (SA-APC) was obtained from Prozyme Cat. # PJ25S.
• a. Preparation of the Assay Mix. […] This mixture was allowed to pre-incubate at RT in the dark for 1-2 h before competitor was added. • b. […] 100 µl of Buffer (TBS pH 8.0 + 0.1 % BSA) were dispensed to wells in columns 1 through 11. Competitors and Buffer were added to Column 12 wells so that the total volume is 150 µl. • c. […] Compounds are dissolved in 100% DMSO. Therefore, 100 µl of Buffer (TBS pH 8.0 + 0.1 % BSA) with 4% DMSO are dispensed to wells in columns 1 through 10. […] Compounds (6 µl) are added into 144 µl Buffer (No DMSO) to Column 12 wells. • d. Dilutions were performed across columns on the plate. Once competitors were dispensed into Column 12 and mixed, 50 µl of the solution Column 12 were transferred to wells in 11 and mixed. 50 µl of the Column 11 mixture was transferred to Column 10 wells. This was repeated until 50 µl of Column 3 mixture was transferred to Column 2 wells. Once accomplished to Column 2, 50 µl from Column 2 were removed and discarded. Column 1 wells were reserved for No Competitor Wells. 100 µl volume was therefore maintained across all columns. • e. 50 µl of the Assay Mix was dispensed into wells on a new 96-well microtiter plate. 50 µl from the Dilutions Plate were then added to this plate. • f. […] This covered plate was allowed to incubate at RT overnight. • g. […] Compounds begin at 200 µM in a working concentration of 2% DMSO. Controls also contained 2% DMSO.

T1 sequence (P06213 28-758 limits assumed): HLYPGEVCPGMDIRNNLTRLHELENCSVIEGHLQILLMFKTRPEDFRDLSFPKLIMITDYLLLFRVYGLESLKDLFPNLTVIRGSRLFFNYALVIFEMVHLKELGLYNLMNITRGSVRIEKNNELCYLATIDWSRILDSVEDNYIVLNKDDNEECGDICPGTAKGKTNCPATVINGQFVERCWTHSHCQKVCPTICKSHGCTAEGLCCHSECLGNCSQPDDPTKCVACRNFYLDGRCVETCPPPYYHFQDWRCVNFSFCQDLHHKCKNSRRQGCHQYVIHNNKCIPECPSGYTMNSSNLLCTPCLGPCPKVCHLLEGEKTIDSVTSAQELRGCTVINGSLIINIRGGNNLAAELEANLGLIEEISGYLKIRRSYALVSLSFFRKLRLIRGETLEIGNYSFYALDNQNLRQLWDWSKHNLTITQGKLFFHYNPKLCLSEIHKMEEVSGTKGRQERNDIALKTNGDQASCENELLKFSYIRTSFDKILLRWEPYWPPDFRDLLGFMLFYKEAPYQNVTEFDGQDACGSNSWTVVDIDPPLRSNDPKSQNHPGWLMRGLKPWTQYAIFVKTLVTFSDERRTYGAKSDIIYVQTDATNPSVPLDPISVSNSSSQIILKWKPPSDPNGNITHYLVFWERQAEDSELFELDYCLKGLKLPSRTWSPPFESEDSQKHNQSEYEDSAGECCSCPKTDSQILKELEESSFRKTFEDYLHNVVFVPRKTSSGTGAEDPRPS
T1 sequence (P06213 763-1382 limits assumed): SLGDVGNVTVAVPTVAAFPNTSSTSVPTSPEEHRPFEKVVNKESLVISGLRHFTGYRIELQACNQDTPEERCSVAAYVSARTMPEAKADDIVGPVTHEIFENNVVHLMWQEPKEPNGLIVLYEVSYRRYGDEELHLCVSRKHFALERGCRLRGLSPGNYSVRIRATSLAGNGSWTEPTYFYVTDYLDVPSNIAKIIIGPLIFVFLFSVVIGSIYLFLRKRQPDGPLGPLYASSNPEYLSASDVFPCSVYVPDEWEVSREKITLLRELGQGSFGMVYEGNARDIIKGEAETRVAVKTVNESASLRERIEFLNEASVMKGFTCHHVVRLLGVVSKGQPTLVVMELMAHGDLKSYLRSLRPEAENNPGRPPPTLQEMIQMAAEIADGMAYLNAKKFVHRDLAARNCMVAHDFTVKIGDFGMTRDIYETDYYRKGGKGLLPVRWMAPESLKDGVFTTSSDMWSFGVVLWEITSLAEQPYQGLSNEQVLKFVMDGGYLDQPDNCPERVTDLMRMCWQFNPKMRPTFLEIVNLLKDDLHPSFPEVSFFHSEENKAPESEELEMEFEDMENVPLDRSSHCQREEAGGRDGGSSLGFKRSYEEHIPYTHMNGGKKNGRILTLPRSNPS

Row | Kd [1] [µM] | Kd ([2]; read-out: Kd (µM) HIR) [µM] | IC50 (IGF-1R) [nM] | Kd ([2]; read-out: HIR affinity) [µM] | Compound
1 | 9.7 | 1.1 | – | – | CC(C)C[C@H](NC(=O)[C@H](C)NC(=O)[C@H](C)NC(=O)[C@H](CCC(N)=O)NC(=O)[C@@H]1CCCN1C(=O)[C@@H](NC(=O)[C@@H](NC(=O)[C@H](Cc1ccc(O)cc1)NC(=O)[C@H](Cc1c[nH]cn1)NC(=O)[C@H](CO)NC(=O)[C@H](CCC(=O)O)NC(=O)[C@H](CC(C)C)NC(=O)[C@@H](N)CCCCN)C(C)C)C(C)C)C(=O)N[C@@H](CC(=O)O)C(=O)N[C@@H](CCCNC(=N)N)C(=O)N[C@@H](CC(C)C)C(=O)N[C@@H](Cc1ccccc1)C(=O)N[C@@H](Cc1ccc(O)cc1)C(=O)N[C@@H](CO)C(=O)N[C@@H](Cc1c[nH]c2ccccc12)C(=O)N[C@@H](Cc1ccccc1)C(=O)N[C@@H](CO)C(=O)N[C@@H](CCCCN)C(=O)N[C@@H](CCCCNC(=O)CCCC[C@@H]1SC[C@@H]2NC(=O)N[C@@H]21)C(N)=O [Clone D107] (H-KLESHYVVPQAALDRLFYSWFSKK(Biotin)-NH2)
2 | 19 | 2.3 | – | – | CC(C)C[C@H](NC(=O)[C@H](CCC(N)=O)NC(=O)[C@H](CCCNC(=N)N)NC(=O)[C@H](CO)NC(=O)[C@H](Cc1ccccc1)NC(=O)[C@H](Cc1c[nH]c2ccccc12)NC(=O)CNC(=O)[C@H](Cc1ccc(O)cc1)NC(=O)[C@H](Cc1ccccc1)NC(=O)[C@@H](N)CCCCN)C(=O)N[C@@H](CO)C(=O)N[C@@H](CC(C)C)C(=O)N[C@H](C(=O)N1CCC[C@H]1C(=O)N[C@@H](CCCNC(=N)N)C(=O)N[C@@H](CC(=O)O)C(=O)N[C@@H](CC(=O)O)C(=O)N[C@@H](Cc1c[nH]c2ccccc12)C(=O)NCC(=O)N[C@@H](CC(C)C)C(=O)N1CCC[C@H]1C(=O)N[C@@H](CCCCN)C(=O)N[C@@H](CCCCNC(=O)CCCC[C@@H]1SC[C@@H]2NC(=O)N[C@@H]21)C(N)=O)[C@@H](C)O [Clone D108] (H-KFYGWFSRQLSLTPRDDWGLPKK(Biotin)-NH2)
3 | 12 | 3.6 | – | – | CC(C)C[C@H](NC(=O)CNC(=O)[C@H](CC(=O)O)NC(=O)[C@H](CCC(N)=O)NC(=O)[C@H](CCCCN)NC(=O)[C@H](CC(N)=O)NC(=O)[C@H](CO)NC(=O)[C@@H](NC(=O)[C@H](CC(C)C)NC(=O)CNC(=O)[C@@H]1CCCN1C(=O)[C@H](C)NC(=O)[C@H](CO)NC(=O)[C@@H](N)CCCCN)C(C)C)C(=O)N[C@@H](Cc1ccccc1)C(=O)N[C@@H](Cc1ccc(O)cc1)C(=O)N[C@@H](CO)C(=O)N[C@@H](Cc1c[nH]c2ccccc12)C(=O)N[C@@H](Cc1ccccc1)C(=O)N[C@@H](CCCNC(=N)N)C(=O)N[C@@H](CCC(=O)O)C(=O)N[C@@H](CCCCN)C(=O)N[C@@H](CCCCNC(=O)CCCC[C@@H]1SC[C@@H]2NC(=O)N[C@@H]21)C(N)=O [Clone D109] (H-KSAPGLVSNKQDGLFYSWFREKK(Biotin)-NH2)
4 | > 20 | 8.1 | – | – | CC(C)[C@H](NC(=O)[C@H](Cc1ccccc1)NC(=O)[C@H](Cc1c[nH]c2ccccc12)NC(=O)[C@H](CC(=O)O)NC(=O)[C@H](Cc1ccc(O)cc1)NC(=O)[C@H](Cc1ccccc1)NC(=O)[C@H](CC(N)=O)NC(=O)[C@H](CCCCN)NC(=O)[C@H](C)NC(=O)[C@@H](N)CO)C(=O)N[C@@H](CCCCN)C(=O)N[C@@H](CCCCNC(=O)CCCC[C@@H]1SC[C@@H]2NC(=O)N[C@@H]21)C(N)=O [Clone D114] (H-SAKNFYDWFVKK(Biotin)-NH2)
5 | > 20 | 8.1 | – | – | CSCC[C@H](NC(=O)[C@H](Cc1ccccc1)NC(=O)[C@H](Cc1c[nH]c2ccccc12)NC(=O)[C@H](CC(=O)O)NC(=O)[C@H](Cc1ccc(O)cc1)NC(=O)[C@H](Cc1ccccc1)NC(=O)[C@H](CC(N)=O)NC(=O)[C@H](CCCCN)NC(=O)[C@H](CC(=O)O)NC(=O)[C@H](C)N)C(=O)N[C@@H](C)C(=O)N[C@@H](C)C(=O)N[C@@H](CCCCN)C(=O)N[C@@H](CCCCNC(=O)CCCC[C@@H]1SC[C@@H]2NC(=O)N[C@@H]21)C(N)=O [Clone D115] (H-ADKNFYDWFMAAKK(Biotin)-NH2)
6 | 9.1 | 0.82 | – | – | CC(C)[C@H](NC(=O)[C@H](Cc1ccccc1)NC(=O)[C@H](Cc1c[nH]c2ccccc12)NC(=O)[C@H](CC(=O)O)NC(=O)[C@H](Cc1ccc(O)cc1)NC(=O)[C@H](Cc1ccccc1)NC(=O)[C@H](CC(N)=O)NC(=O)[C@H](CCC(=O)O)NC(=O)[C@H](Cc1c[nH]cn1)NC(=O)[C@H](Cc1ccccc1)NC(=O)[C@@H](N)CCCCN)C(=O)N[C@@H](CCCNC(=N)N)C(=O)N[C@@H](CCC(N)=O)C(=O)N[C@H](C(=O)N[C@@H](CO)C(=O)N[C@@H](CCCCN)C(=O)N[C@@H](CCCCNC(=O)CCCC[C@@H]1SC[C@@H]2NC(=O)N[C@@H]21)C(N)=O)C(C)C [Clone D117K]
7 | – | – | 5620 | – | CSCC[C@H](NC(=O)[C@H](CC(C)C)NC(=O)[C@H](CCCNC(=N)N)NC(=O)[C@H](CC(=O)O)NC(=O)[C@H](CC(C)C)NC(=O)[C@H](C)NC(=O)[C@H](CC(=O)O)NC(=O)[C@@H](N)CC(C)C)C(=O)N[C@@H](CCCNC(=N)N)C(=O)N[C@@H](Cc1ccc(O)cc1)C(=O)N[C@@H](Cc1ccccc1)C(=O)N[C@@H](CCC(=O)O)C(=O)N[C@@H](CCC(=O)O)C(=O)N[C@@H](CCCNC(=N)N)C(=O)N1CCC[C@H]1C(=O)N[C@@H](CO)C(=O)N[C@@H](CC(C)C)C(N)=O [Clone S173]
8 | – | – | 1460 | 16 | CC(C)C[C@H](NC(=O)[C@@H]1CCCN1)C(=O)N[C@@H](C)C(=O)N[C@@H](CCC(=O)O)C(=O)N[C@@H](CC(C)C)C(=O)N[C@@H](Cc1c[nH]c2ccccc12)C(=O)N[C@@H](C)C(=O)N[C@@H](Cc1ccc(O)cc1)C(=O)N[C@@H](Cc1ccccc1)C(=O)N[C@@H](CCC(=O)O)C(=O)N[C@@H](Cc1c[nH]cn1)C(=O)N[C@@H](CO)C(=O)N[C@@H](CCC(=O)O)C(=O)N[C@@H](CCC(N)=O)C(=O)NCC(=O)N[C@@H](CCCNC(=N)N)C(=O)N[C@@H](CO)C(=O)N[C@@H](CO)C(=O)N[C@@H](C)C(=O)N[C@@H](Cc1c[nH]cn1)C(N)=O [Clone S174]
9 | – | – | ~100000 | > 20 | AFYDWFAKK-NH2 [Clone S167]
10 | – | – | 2040 | 2.7 | EHWNTVDPFYFTLFEWLRESG-NH2 [Clone S177]
11 | – | – | 240 | 0.13 | EHWNTVDPFYQYFSELLRESG-NH2 [Clone S178]
12 | – | – | 418 | 0.47 | NGVERAGTGDNFYDWFVAQLH-NH2 [Clone S176]
13 | – | – | 5350 | 0.54 | QSDSGTVHDRFYGWFRDTWAS-NH2 [Clone S179]
14 | – | – | 184 | – | TFYSCLASLLTGTPQPNRGPWERCR [20C-3-G3-IGFR]
